In patent US20240099996A1, “METHODS FOR TREATING CANCER” (Radius Pharmaceuticals, Inc., priority 2015, published 2024):
Structures can show the parent of a compound that is named as a salt.

Assay: Phase 1 dose escalation study in healthy post-menopausal women, treatment related AEs
Format: in vivo
Procedure: The subjects were 40-75 years old with BMI of 18.0-30 kg/m^2. Subjects having evidence of clinically relevant pathology, increased risk of stroke or of history venous thromboembolic events, or use of concomitant medication less than 14 days prior to admission to clinical research center (paracetamol allowed up to 3 days prior) were excluded. Dosing
The subjects were treated with placebo or at least one dose p.o., q.d. after a light breakfast for 7 days at dose levels of 200 mg, 500 mg, 750 mg and 1000 mg, respectively.

## CCNCCc1ccc(CN(CC)c2cc(OC)ccc2[C@@H]2CCc3cc(O)ccc3C2)cc1 [RAD1901, (6R)-6-(2-(N-(4-(2-(ethylamino)ethyl)benzyl)-N-ethylamino)-4-methoxyphenyl)-5,6,7,8-tetrahydronaphthalen-2-ol dihydrochloride]
750 mg, N = 8
  Nausea Gr2: 1 (13) n(%)
  Nausea Gr3: 0 n(%)
  Odynophagia Gr1: 0 n(%)
  Odynophagia Gr2: 0 n(%)
  Odynophagia Gr3: 0 n(%)
  Oesophageal pain Gr1: 1 (13) n(%)
  Oesophageal pain Gr2: 0 n(%)
  Oesophageal pain Gr3: 0 n(%)
  Salivary hypersecretion Gr1: 2 (25) n(%)
  Salivary hypersecretion Gr2: 0 n(%)
  Salivary hypersecretion Gr3: 0 n(%)
  Sensation of a foreign body Gr1: 0 n(%)
  Sensation of a foreign body Gr2: 0 n(%)
  Sensation of a foreign body Gr3: 0 n(%)
  Vomiting Gr1: 0 n(%)
  Vomiting Gr2: 2 (25) n(%)
  Vomiting Gr3: 0 n(%)
1000 mg, N = 7
  Abdominal discomfort Gr1: 0 n(%)
  Abdominal discomfort Gr2: 0 n(%)
  Abdominal discomfort Gr3: 0 n(%)
  Abdominal distension Gr1: 2 (29) n(%)
  Abdominal distension Gr2: 0 n(%)
  Abdominal distension Gr3: 0 n(%)
  Abdominal pain Gr1: 1 (14) n(%)
  Abdominal pain Gr2: 1 (14) n(%)
  Abdominal pain Gr3: 0 n(%)
  Diarrhoea Gr1: 3 (43) n(%)
  Diarrhoea Gr2: 1 (14) n(%)
  Diarrhoea Gr3: 0 n(%)
  Dizziness Gr1: 1 (14) n(%)
  Dizziness Gr2: 0 n(%)
  Dizziness Gr3: 0 n(%)
  Dyspepsia Gr1: 1 (14) n(%)
  Dyspepsia Gr2: 1 (14) n(%)
  Dyspepsia Gr3: 0 n(%)
  Dysphagia Gr1: 0 n(%)
  Dysphagia Gr2: 0 n(%)
  Dysphagia Gr3: 0 n(%)
  Flatulance Gr1: 0 n(%)
  Flatulance Gr2: 0 n(%)
  Flatulance Gr3: 0 n(%)
  Headache Gr1: 2 (29) n(%)
  Headache Gr2: 0 n(%)
  Headache Gr3: 0 n(%)
  Hiccups Gr1: 2 (29) n(%)
  Hiccups Gr2: 0 n(%)
  Hiccups Gr3: 0 n(%)
  Hot flush Gr1: 1 (14) n(%)
  Hot flush Gr2: 0 n(%)
  Hot flush Gr3: 0 n(%)
  Myalgia Gr1: 0 n(%)
  Myalgia Gr2: 0 n(%)
  Myalgia Gr3: 0 n(%)
  Nausea Gr1: 4 (57) n(%)
  Nausea Gr2: 2 (29) n(%)
  Nausea Gr3: 0 n(%)
  Odynophagia Gr1: 1 (14) n(%)
  Odynophagia Gr2: 1 (14) n(%)
  Odynophagia Gr3: 0 n(%)
  Oesophageal pain Gr1: 1 (14) n(%)
  Oesophageal pain Gr2: 1 (14) n(%)
  Oesophageal pain Gr3: 1 (14) n(%)
  Salivary hypersecretion Gr1: 2 (29) n(%)
  Salivary hypersecretion Gr2: 0 n(%)
  Salivary hypersecretion Gr3: 0 n(%)
  Sensation of a foreign body Gr1: 4 (57) n(%)
  Sensation of a foreign body Gr2: 0 n(%)
  Sensation of a foreign body Gr3: 0 n(%)
  Vomiting Gr1: 0 n(%)
  Vomiting Gr2: 3 (43) n(%)
  Vomiting Gr3: 0 n(%)
200-1000 mg p.o., q.d., 7 days
  dose limiting toxicities (DLT): No dose limiting toxicites (DLT) were observed
  maximum tolerated dose (MTD): not established
Total Active, N = 44
  Abdominal discomfort Gr1: 4 n(%)
  Abdominal discomfort Gr2: 1 (2) n(%)
  Abdominal discomfort Gr3: 0 n(%)
  Abdominal distension Gr1: 5 n(%)
  Abdominal distension Gr2: 1 (2) n(%)
  Abdominal distension Gr3: 0 n(%)
  Abdominal pain Gr1: 7 n(%)
  Abdominal pain Gr2: 3 (7) n(%)
  Abdominal pain Gr3: 0 n(%)
  Diarrhoea Gr1: 6 n(%)
  Diarrhoea Gr2: 1 (2) n(%)
  Diarrhoea Gr3: 0 n(%)
  Dizziness Gr1: 5 n(%)
  Dizziness Gr2: 0 n(%)
  Dizziness Gr3: 0 n(%)
  Dyspepsia Gr1: 13 n(%)
  Dyspepsia Gr2: 3 (7) n(%)
  Dyspepsia Gr3: 0 n(%)
  Dysphagia Gr1: 4 n(%)
  Dysphagia Gr2: 3 (7) n(%)
  Dysphagia Gr3: 0 n(%)
  Flatulance Gr1: 5 n(%)
  Flatulance Gr2: 0 n(%)
  Flatulance Gr3: 0 n(%)
  Headache Gr1: 9 n(%)
  Headache Gr2: 1 (2) n(%)
  Headache Gr3: 0 n(%)
  Hiccups Gr1: 9 n(%)
  Hiccups Gr2: 0 n(%)
  Hiccups Gr3: 0 n(%)
  Hot flush Gr1: 11 n(%)
  Hot flush Gr2: 0 n(%)
  Hot flush Gr3: 0 n(%)
  Myalgia Gr1: 3 n(%)
  Myalgia Gr2: 2 (5) n(%)
  Myalgia Gr3: 0 n(%)
  Nausea Gr1: 14 n(%)
  Nausea Gr2: 5 (11) n(%)
  Nausea Gr3: 0 n(%)
  Odynophagia Gr1: 4 n(%)
  Odynophagia Gr2: 2 (5) n(%)
  Odynophagia Gr3: 0 n(%)
  Oesophageal pain Gr1: 3 n(%)
  Oesophageal pain Gr2: 6 (14) n(%)
  Oesophageal pain Gr3: 1 (2) n(%)
  Salivary hypersecretion Gr1: 8 n(%)
  Salivary hypersecretion Gr2: 0 n(%)
  Salivary hypersecretion Gr3: 0 n(%)
  Sensation of a foreign body Gr1: 7 n(%)
  Sensation of a foreign body Gr2: 0 n(%)
  Sensation of a foreign body Gr3: 0 n(%)
  Vomiting Gr1: 3 n(%)
  Vomiting Gr2: 10 (23) n(%)
  Vomiting Gr3: 1 (2) n(%)
Total TEAE, N = 44
  Abdominal discomfort All: 5 n(%)
  Abdominal distension All: 6 n(%)
  Abdominal pain All: 10 n(%)
  Diarrhoea All: 7 n(%)
  Dizziness All: 5 n(%)
  Dyspepsia All: 16 n(%)
  Dysphagia All: 7 n(%)
  Flatulance All: 5 n(%)
  Headache All: 10 n(%)
  Hiccups All: 9 n(%)
  Hot flush All: 11 n(%)
  Myalgia All: 5 n(%)
  Nausea All: 19 n(%)
  Odynophagia All: 6 n(%)
  Oesophageal pain All: 10 n(%)
  Salivary hypersecretion All: 8 n(%)
  Sensation of a foreign body All: 7 n(%)
  Vomiting All: 14 n(%)
